Experiment: cn = amount concentration of the nth substance listed, in mol/dm3
Conditions: 298 K; for surface tension liquid-gas: Ring tensiometer; for kinematic viscosity / speed of sound / mass density: 101.33 kPa, Liquid; for kinematic viscosity: Capillary tube (Ostwald / Ubbelohde) method; for speed of sound: Sing-around technique in a fixed-path interferometer

CCCCCCCCCCCCCCCCCC[N+](C)(C)C.[Br-] [N,N,N-trimethyl-1-octadecanaminium bromide] + O
Conditions	kinematic viscosity [m2/s]	mass density [kg/m3]	speed of sound [m/s]	surface tension liquid-gas [mN/m]
c1 = 0.001	8.957e-07	997.053	1497.2	62.3
c1 = 0.002	8.958e-07	997.053	1497.7	54.2
c1 = 0.003	8.958e-07	997.053	1498	48.7
c1 = 0.004	8.958e-07	997.053	1498.2	45
c1 = 0.005	8.959e-07	997.053	1498	42.8
c1 = 0.006	8.959e-07	997.054	1497.8	42
c1 = 0.008	8.96e-07	997.054	1497.2	41.4
c1 = 0.01	8.96e-07	997.054	1496.7	41.3
c1 = 0.013	8.961e-07	997.054	1496	41
c1 = 0.016	8.962e-07	997.054	1495.2	40.8
c1 = 0.02	8.963e-07	997.055	1494.2	40.4
c1 = 0.025	8.965e-07	997.055	1492.7	40.2
c1 = 0.03	8.966e-07	997.056	1491.6	39.6
c1 = 0.04	8.969e-07	997.057	1489.2	39.3

CCCCCCCCCCCCCC[N+](C)(C)C.[Br-] [tetradecyltrimethylammonium bromide] + O
Conditions	kinematic viscosity [m2/s]	mass density [kg/m3]	speed of sound [m/s]	surface tension liquid-gas [mN/m]
c1 = 0.001	8.962e-07	997.062	1496.9	60.4
c1 = 0.002	8.968e-07	997.064	1497.2	51.7
c1 = 0.003	8.991e-07	997.087	1497.3	44
c1 = 0.005	9.015e-07	997.106	1497.4	40.6
c1 = 0.01	9.078e-07	997.153	1497.5	38
c1 = 0.015	9.144e-07	997.204	1497.6	37.8
c1 = 0.02	9.215e-07	997.268	1497.7	37.6
c1 = 0.025	9.29e-07	997.307	1497.8	37.4
c1 = 0.03	9.368e-07	997.349	1497.8	37.1
c1 = 0.035	9.45e-07	997.402	1497.9	37
c1 = 0.04	9.537e-07	997.458	1497.9	36.9
c1 = 0.045	9.627e-07	997.5	1498	36.8
c1 = 0.05	9.722e-07	997.545	1498.1	36.7
c1 = 0.055	9.82e-07	997.604	1498.1	36.7

O [water] + CCCCCCCCCCCCCCCCCC[N+](C)(C)C.[Br-]
c2 = 0
Conditions	kinematic viscosity [m2/s]	surface tension liquid-gas [mN/m]
–	8.957e-07	72.5

O [water] + CCCCCCCCCCCCCC[N+](C)(C)C.[Br-]
c2 = 0
Conditions	kinematic viscosity [m2/s]	surface tension liquid-gas [mN/m]
–	8.957e-07	72.5

Source: the NIST ThermoML archive (doi:10.1021/je7003148)
